Results taken from patent US8802132B2, “Anti-microbial tissue paper and process to manufacture same” (Cascades Canada ULC, priority 2010, dated 2014).

Legend:
[1] = Benzalkonium chloride release from wetted paper, lab blender extraction method; assay type: physicochemical; conditions: hand towel made of recycled pulp; cationizing agent about 1.2 wt % (12 kg/T); benzalkonium chloride about 1 wt %
Source text: As mentioned above, the cationizing agent at least partially neutralizes the paper anionic charges. Thereby, a portion of the antimicrobial agent, which can also be cationic, is not retained on the tissue paper when the latter is wetted and is thereby released. In an embodiment, the tissue paper has a release rate between approximately 0.01 wt % and 0.6 wt % when wetted. In an alternative embodiment, the tissue paper has a release rate between approximately 0.05 wt % and 0.2 wt % when wetted. For example, a tissue paper containing about 0.3 wt % of antimicrobial agent can release about 0.1 wt % of antimicrobial agent when wetted. The antimicrobial agent released from the tissue paper is measured relatively to the original, substantially dry tissue paper weight including the cationizing and antimicrobial agents. The antimicrobial agent released from the tissue paper is measured in a solution, such as water, following extraction. For the release rates mentioned in the application, the extraction is carried out by the lab blender method described below. The antimicrobial agent in the solution is measured by a method such as and without being limitative biphasic titration or high performance liquid chromatography (HPLC).
The amount of antimicrobial agent released will be highly dependent on the method used to retrieve it from the paper. […]

[2] = Charge density of cationizing agents, antimicrobial agent and fibres; assay type: physicochemical

Compound | Benzalkonium chloride released [1] | Charge density ([2]; cationic agent of Table 3) [eq/kg] | Charge density ([2]; Table 4, recycled deinked pulp (DIP) hand towel) | Charge density ([2]; Table 5, virgin bleached Kraft hand towel)
CCCCCCCCCCCCCCCC[N+](C)(C)C.[Cl-] [Cetyltrimethylammonium chloride, cetyltrimethylammonium chloride] | 0.23 % (w/w) | 3.76 |  | 
benzalkonium chloride [Antimicrobial agent] |  |  | +2.9 equiv/kg | +2.9 equiv/kg
